ChEMBL document CHEMBL1201862, “PubChem BioAssay data set” (2004)
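96-well plates; 48 h exposure; 5 concentrations. Endpoints by linear interpolation between flanking doses. Not reached: highest tested concentration assigned. Abbreviation: GI50, concentration required for 50% inhibition of growth.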 Calls of active or inactive are those of the source. Rule as the data show it: active = GI50 up to about 1.1 µM and inactive = higher.

Columns and labels:
Assay in all cases: growth of human tumour cells (NCI), 48 h
XF498 = system: XF498
SK-MEL-5 = system: SK-MEL-5
LOX IMVI = system: LOX IMVI
NCI-H522 = system: NCI-H522
SF-268 = system: SF-268
U-251 = system: U-251
SR = system: SR
DLD-1 = system: DLD-1
SK-MEL-2 = system: SK-MEL-2
TK-10 = system: TK-10
KM12 = system: KM12
NCI-H226 = system: NCI-H226
SF-295 = system: SF-295
A549 = system: A549
A498 = system: A498
SNB-75 = system: SNB-75
SF-539 = system: SF-539
HCC 2998 = system: HCC 2998
OVCAR-3 = system: OVCAR-3
Malme-3M = system: Malme-3M

Measured: GI50

COc1ccccc1NC(=O)C(=O)C(C(=O)c1ccccc1F)C1OC(=O)c2ccccc21 (stereo unspecified)
inactive: XF498 14.1 µM | SK-MEL-5 39.1 µM | LOX IMVI 20.8 µM | NCI-H522 16.9 µM | SF-268 29.9 µM | U-251 14.3 µM | SR 22.2 µM | DLD-1 33.3 µM | SK-MEL-2 17.6 µM | TK-10 50 µM | KM12 30.1 µM | NCI-H226 15.6 µM | SF-295 43.1 µM | A549 45.3 µM | A498 59.8 µM | SNB-75 21.9 µM | SF-539 20.8 µM | HCC 2998 14.8 µM

c1ccc([P+](Cc2csnn2)(c2ccccc2)c2ccccc2)cc1
inactive: XF498 > 100 µM | SK-MEL-5 > 100 µM | LOX IMVI > 100 µM | OVCAR-3 > 100 µM | NCI-H522 > 100 µM | SF-268 > 100 µM | U-251 > 100 µM | SR > 100 µM | DLD-1 > 100 µM | SK-MEL-2 > 100 µM | TK-10 > 100 µM | KM12 > 100 µM | NCI-H226 > 100 µM | SF-295 > 100 µM | Malme-3M > 100 µM | A549 > 100 µM | A498 > 100 µM | SNB-75 > 100 µM | SF-539 > 100 µM | HCC 2998 > 100 µM

O=C(CC1Sc2ccccc2NC1=O)Nc1ccccc1[N+](=O)[O-] (stereo unspecified)
inactive: XF498 > 100 µM | SK-MEL-5 > 100 µM | LOX IMVI > 100 µM | OVCAR-3 > 100 µM | NCI-H522 17.1 µM | SF-268 > 100 µM | U-251 > 100 µM | SR 12.2 µM | DLD-1 > 100 µM | SK-MEL-2 > 100 µM | TK-10 > 100 µM | KM12 > 100 µM | NCI-H226 > 100 µM | SF-295 > 100 µM | Malme-3M > 100 µM | A549 > 100 µM | A498 > 100 µM | SNB-75 > 100 µM | SF-539 > 100 µM | HCC 2998 > 100 µM

COc1cccc(NC(=O)CC(=O)NN2C(=O)/C(=C/c3ccc(N(CCC#N)CCC#N)cc3)N=C2c2cc([N+](=O)[O-])ccc2Cl)c1
inactive: XF498 57.7 µM | SK-MEL-5 42.2 µM | LOX IMVI > 100 µM | OVCAR-3 > 100 µM | NCI-H522 43.9 µM | SF-268 > 100 µM | U-251 75.3 µM | SR 22.4 µM | DLD-1 60.3 µM | SK-MEL-2 > 100 µM | TK-10 > 100 µM | KM12 > 100 µM | NCI-H226 13.6 µM | SF-295 87.1 µM | Malme-3M 32.7 µM | A549 > 100 µM | SF-539 > 100 µM | HCC 2998 96.8 µM

C=C1C2=C(CCCC2)C(=O)OC12CCCCC2
inactive: XF498 97.5 µM | SK-MEL-5 38 µM | LOX IMVI 66.4 µM | OVCAR-3 43.5 µM | NCI-H522 35.5 µM | SF-268 86.1 µM | U-251 73.6 µM | SR 38.9 µM | DLD-1 92.7 µM | SK-MEL-2 70.3 µM | TK-10 > 100 µM | KM12 85.5 µM | NCI-H226 93.8 µM | SF-295 57.7 µM | Malme-3M 51.3 µM | A549 49.3 µM | SNB-75 23.8 µM | SF-539 > 100 µM | HCC 2998 > 100 µM

Cc1ccc(SSCCCCCS(=O)O)cc1
inactive: XF498 18.6 µM | LOX IMVI 16.8 µM | OVCAR-3 22.2 µM | NCI-H522 14.6 µM | SF-268 14.6 µM | U-251 11 µM | SR 4.62 µM | DLD-1 33.9 µM | SK-MEL-2 25.8 µM | TK-10 26.9 µM | KM12 36.1 µM | Malme-3M 18.3 µM | A498 19 µM | SNB-75 29.6 µM | SF-539 16.2 µM | HCC 2998 46.7 µM
